Measured values: patent publication US8916516B2, “Treatment of fungal and/or protist infections” (AI2 Limited, priority 2005, dated 2014)
No end group written: not given here.

Assays:
Type in all cases: cell-based
[1] = test system: Aspergillus fumigatus AF293 (NCPF7367); assay: microbe, parasite or virus in culture; conditions: Aspergillus fumigatus 293; peptides; Tables 4 and 5
Procedure: (§1) Four compounds were supplied as an aqueous solution, 400 μM. Serial dilutions of each test peptide were prepared in addition to a control, which was a conventional antifungal drug, Amphoteracin B. Amphteracin B is obtained from Invitrogen or Melford laboratories.
(§2) Initial testing of the peptides was carried out against the following organisms: • 1) Aspergillus fumigatus AF293 (culture collection strain NCPF7367) • 2) Candida albicans 6862 (clinical isolate) • 3) Fusarium spp 5889 (clinical isolate) • 4) Fusarium spp 6507 (clinical isolate) • 5) Aspergillus terreus (clinical isolate) • 6) Aspergillus niger (clinical isolate) • 7) Staphylococcus aureus (Oxford strain, which is a standard reference strain used in MIC testing)
The bacterium S. aureus was tested with each of the peptides as a control. A suspension of each organism in an appropriate growth medium was added to the, dilutions of the peptides in order to give concentration ranges of 40 μM to 0.04 μM for each of the peptides, and 64-0.025 μg/ml for amphotericin B. Fungal strains were tested in RPMI media. RPMI is standard Roswell Park Memorial Institute medium (Morton, H. C., (1970) A survey of Commercially Available Tissue Culture Media. In Vitro 6: 89-108).
The final inoculum for S. aureus was 5×10^4 cfu/ml. The final inoculum for C. albicans was 2×10^3 cfu/ml. The final inoculum for Aspergillus fumigatus and for Fusarium spp was 2×10^4 cfu/ml.
(§3) Candida and S. aureus plates were read after 24 hrs incubation and the Aspergillus and Fusarium strains read after 48 hrs. The MIC was taken as the lowest drug or compound concentration that caused >80% reduction in growth compared with a drug free control.
Aspergillus fumigatus 293 (AF); and
FS1-FS4 were obtained from Bristol PHLS (British Public Health Laboratory Service UK). Aspergillus fumigatus 293 is publicly available as culture collection strain NCPF7367 (National Collection of Pathogenic Fungi Public Health Laboratory, Mycological Reference Laboratory Myrtle Road, Kingsdown, Bristol BS2 8EL) The Candida albicans was a clinical isolate obtained by standard means. […]

[2] = test system: Fusarium solani 1 (FS1); assay: Antifungal MIC (Example 4); conditions: Fusarium solani 1; peptides; Tables 4 and 5
Procedure: (§4) The inventor expanded the work conducted in Example 1 by testing an expanded library of peptides derived from either apolipoprotein B or apolipoprotein E in order to further evaluate polypeptides in accordance with the invention. These experiments were conducted using the following fungal species:
(§5) FS1-FS4 were obtained from Bristol PHLS (British Public Health Laboratory Service UK). Aspergillus fumigatus 293 is publicly available as culture collection strain NCPF7367 (National Collection of Pathogenic Fungi Public Health Laboratory, Mycological Reference Laboratory Myrtle Road, Kingsdown, Bristol BS2 8EL) The Candida albicans was a clinical isolate obtained by standard means.
(§6) The methods used to determine, the IC50 values for each peptide were as described in the Example 1.

[3] = test system: Fusarium solani 2 (FS2); assay: Antifungal MIC (Example 4); conditions: Fusarium solani 2; peptides; Tables 4 and 5
Procedure: as §4, §5, §6

[4] = test system: Fusarium solani 3 (FS3); assay: Antifungal MIC (Example 4); conditions: Fusarium solani 3; peptides; Tables 4 and 5
Procedure: as §4, §5, §6

[5] = test system: Fusarium solani 4 (FS4); assay: Antifungal MIC (Example 4); conditions: Fusarium solani 4; peptides; Tables 4 and 5
Procedure: as §4, §5, §6

[6] = test system: Candida albicans (CA), clinical isolate; assay: Antifungal MIC (Example 4); conditions: peptides, Tables 4 and 5
Procedure: as §4, §5, §6

[7] = test system: fungi; conditions: overall statement on the fungi tested
Procedure: as §1, §2
The bacterium S. aureus was tested with each of the peptides as a control. […] RPMI is standard Roswell Park Memorial Institute medium (Morton, H. C., (1970) A survey of Commercially Available Tissue Culture Media. In Vitro 6: 89-108).
as §3, §6

Substance | MIC values (>80% reduction) AF [1] | MIC values (>80% reduction) FS1 [2] | MIC values (>80% reduction) FS2 [3] | MIC values (>80% reduction) FS3 [4] | MIC values (>80% reduction) FS4 [5] | MIC values (>80% reduction) CA [6] | antifungal activity (in words) [7]
LRKLRKRLLRLRKLRKRLLR (Artificial polypeptide designated MU 82) [MU_82, 21] | >40 µM | 2.5 µM | 2.5 µM | 2.5 µM | 10 µM | >40 µM | –
GRKGRKRGGGRKGRKRGG (Artificial polypeptide designated MU 17) [MU_17, 84] | >40 µM | >40 µM | >40 µM | >40 µM | >40 µM | >40 µM | –
NRKNRKRNNNRKNRKRNN (Artificial polypeptide designated MU 11) [MU_11, 80] | >40 µM | >40 µM | >40 µM | 40 µM | >40 µM | >40 µM | –
TRKTRKRTTTRKTRKRTT (Artificial polypeptide designated MU 15) [MU_15, 83] | >40 µM | >40 µM | >40 µM | >40 µM | >40 µM | >40 µM | –
QRKQRKRQQQRKQRKRQQ (Artificial polypeptide designated MU 9) [MU_9, 79] | >40 µM | >40 µM | >40 µM | >40 µM | >40 µM | >40 µM | –
LRKLRKRLLLRKLRKRWW (Artificial polypeptide designated MU 112) [MU_112, 24] | >40 µM | 2.5 µM | 2.5 µM | 2.5 µM | 5 µM | >40 µM | –
WRKWRKRWWLRKLRKRLL (Artificial polypeptide designated GIN 34) | 40 µM | 1.25 µM | 0.6 µM | 1.25 µM | 12.5 µM | 10 µM | –
LRKLRKRLL (listed as Homo sapiens) [apoE141-149, monomeric 9-mer of apolipoprotein E, reference compound] | – | – | – | – | – | – | no detectable antifungal activity
PRKPRKRPPPRKPRKRPP (Artificial polypeptide designated MU 20) [MU_20, 86] | >40 µM | >40 µM | >40 µM | >40 µM | >40 µM | >40 µM | –
WRKWRKRWW (Artificial polypeptide designated MU 45) [MU_45, 87; monomer on which MU 4 is based] | >40 µM | 40 µM | 40 µM | 40 µM | >40 µM | >40 µM | ineffective
YRKYRKRYYYRKYRKRYY (Artificial polypeptide designated GIN 41 or MU6) [MU_6] | >40 µM | 10 µM | 5 µM | 5 µM | 20 µM | >40 µM | particularly effective antifungal peptides
VRKVRKRVVVRKVRKRVV (Artificial polypeptide designated MU 14) [MU_14, 82] | >40 µM | >40 µM | >40 µM | >40 µM | >40 µM | >40 µM | –
HRKHRKRHHHRKHRKRHH (Artificial polypeptide designated MU 19) [MU_19] | >40 µM | 20 µM | >40 µM | 40 µM | 10 µM | >40 µM | –
SRKSRKRSSSRKSRKRSS (Artificial polypeptide designated MU 13) [MU_13, 81] | >40 µM | >40 µM | >40 µM | >40 µM | >40 µM | >40 µM | –
MRKMRKRMMMRKMRKRMM (Artificial polypeptide designated MU 16) [MU_5] | >40 µM | 10 µM | 20 µM | 20 µM | 40 µM | >40 µM | –
IRKIRKRIIIRKIRKRII (Artficial polypeptide designated MU 8) [MU_8] | >40 µM | 40 µM | 20 µM | 20 µM | 40 µM | >40 µM | –
modified apoB3359-3367: SEQ ID No. 7; modified form of the apoB3359-3367 9-mer, sequence shown only in Table 1 drawing (LRTRKRGRK; not fully specified) [reference compound] | – | – | – | – | – | – | no detectable antifungal activity
DRKDRKRDDDRKDRKRDD (Artificial polypeptide designated MU 3) [MU_3, 78] | >40 µM | >40 µM | >40 µM | >40 µM | >40 µM | >40 µM | –
RLTRKRGLK (listed as Homo sapiens) [apoB3359-3367, monomeric 9-mer of apolipoprotein B, reference compound] | – | – | – | – | – | – | no detectable antifungal activity
ARKARKRAAARKARKRAA (Artificial polypeptide designated MU 2) [MU_2, 77] | >40 µM | >40 µM | >40 µM | >40 µM | >40 µM | >40 µM | –
ERKERKREEERKERKREE (Artificial polypeptide designated MU 1) [MU_1, 76] | >40 µM | >40 µM | >40 µM | >40 µM | >40 µM | >40 µM | –
